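A five-concentration, 48-hour dose response in 96-well plates underlies each endpoint, interpolated linearly between surrounding concentrations. GI50 marks 50% less growth. At the TGI there is no net growth.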
Assays:
Assay in all cases: DTP human tumour cell line panel, 48 h
[1] = test system: MALME-3M melanoma
[2] = test system: DU-145 prostate
[3] = test system: UACC-257 melanoma
[4] = test system: CCRF-CEM leukemia
[5] = test system: OVCAR-4 ovarian
[6] = test system: SW-620 colon
[7] = test system: TK-10 renal
[8] = test system: T-47D breast
[9] = test system: COLO 205 colon
[10] = test system: MDA-MB-468 breast
[11] = test system: HOP-62 NSCLC
[12] = test system: NCI-H226 lung
[13] = test system: MCF7 breast
[14] = test system: HL-60(TB) leukemia
[15] = test system: SF-268 CNS
[16] = test system: MDA-MB-231 breast
[17] = test system: A549 NSCLC
[18] = test system: SK-MEL-5 melanoma
[19] = test system: NCI-H460 lung
[20] = test system: HOP-92 NSCLC
[21] = test system: RXF 393 renal
[22] = test system: HCC-2998 colon
[23] = test system: 786-0 renal
[24] = test system: SNB-19 CNS
[25] = test system: K-562 leukemia
[26] = test system: EKVX NSCLC
[27] = test system: OVCAR-8 ovarian
[28] = test system: NCI-H522 lung
[29] = test system: RPMI-8226 leukemia
[30] = test system: U251 CNS
[31] = test system: NCI/ADR-RES ovarian
[32] = test system: PC-3 prostate
[33] = test system: LOX IMVI melanoma
[34] = test system: A498 renal
[35] = test system: UACC-62 melanoma
[36] = test system: ACHN renal
[37] = test system: M14 melanoma
[38] = test system: SK-MEL-2 melanoma
[39] = test system: BT-549 breast
[40] = test system: IGROV1 ovarian
[41] = test system: MOLT-4 leukemia
[42] = test system: HCT-15 colon
[43] = test system: CAKI-1 renal
[44] = test system: SNB-75 CNS
[45] = test system: HS 578T breast
[46] = test system: HCT-116 colon
[47] = test system: HT29 colon
[48] = test system: SF-295 CNS
[49] = test system: MDA-MB-435
[50] = test system: UO-31 renal
[51] = test system: SF-539 CNS
[52] = test system: KM12 colon
[53] = test system: SR leukemia
[54] = test system: NCI-H23 lung
[55] = test system: OVCAR-5 ovarian
[56] = test system: SK-MEL-28 melanoma
[57] = test system: SN12C renal
[58] = test system: OVCAR-3 ovarian
[59] = test system: SK-OV-3 ovarian

COc1c2c(cc3c1C(CCc1ccccc1)N(C)CC3)OCO2 (stereo not drawn)
GI50 [1]: 13 µM
TGI [1]: 27.3 µM
GI50 [2]: 36 µM
TGI [2]: > 100 µM
GI50 [3]: 29.3 µM
TGI [3]: > 100 µM
GI50 [4]: 19.2 µM
TGI [4]: > 100 µM
GI50 [5]: 26.4 µM
TGI [5]: > 100 µM
GI50 [6]: 10.3 µM
TGI [6]: 59.6 µM
GI50 [7]: 47.2 µM
TGI [7]: > 100 µM
GI50 [8]: 11.3 µM
TGI [8]: 49.2 µM
GI50 [9]: 10.4 µM
TGI [9]: 36.5 µM
GI50 [10]: 11.7 µM
TGI [10]: 27.4 µM
GI50 [11]: 8.32 µM
TGI [11]: > 100 µM
GI50 [12]: 13.8 µM
TGI [12]: > 100 µM
GI50 [13]: 14.6 µM
TGI [13]: 43.1 µM
GI50 [14]: 4.8 µM
TGI [14]: 26.4 µM
GI50 [15]: 17.3 µM
TGI [15]: > 100 µM
GI50 [16]: 10 µM
TGI [16]: 40.7 µM
GI50 [17]: 31.5 µM
TGI [17]: > 100 µM
GI50 [18]: 13.8 µM
TGI [18]: 26.8 µM
GI50 [19]: 7.61 µM
TGI [19]: 54.3 µM
GI50 [20]: 5.53 µM
TGI [20]: 56.1 µM
GI50 [21]: 11.8 µM
TGI [21]: 55 µM
GI50 [22]: 18.1 µM
TGI [22]: 61.1 µM
GI50 [23]: 18.7 µM
TGI [23]: > 100 µM
GI50 [24]: 21.7 µM
TGI [24]: > 100 µM
GI50 [25]: 17.8 µM
TGI [25]: > 100 µM
GI50 [26]: 30.5 µM
TGI [26]: > 100 µM
GI50 [27]: 31.3 µM
TGI [27]: > 100 µM
GI50 [28]: 18.4 µM
TGI [28]: 65.4 µM
GI50 [29]: 6.07 µM
TGI [29]: 38.2 µM
GI50 [30]: 24.5 µM
TGI [30]: > 100 µM
GI50 [31]: 15.6 µM
TGI [31]: 81.1 µM
GI50 [32]: 11.3 µM
TGI [32]: > 100 µM
GI50 [33]: 5.31 µM
TGI [33]: 19.4 µM
GI50 [34]: 12.1 µM
TGI [34]: 48.3 µM
GI50 [35]: 12 µM
TGI [35]: 43.9 µM
GI50 [36]: 13.5 µM
TGI [36]: > 100 µM
GI50 [37]: 7.57 µM
TGI [37]: 36.5 µM
GI50 [38]: 24.6 µM
TGI [38]: 98.3 µM
GI50 [39]: 14.3 µM
TGI [39]: 35.5 µM
GI50 [40]: 10 µM
TGI [40]: 62.6 µM
GI50 [41]: 15.8 µM
TGI [41]: 65.1 µM
GI50 [42]: 22.5 µM
TGI [42]: > 100 µM
GI50 [43]: 10.5 µM
TGI [43]: > 100 µM
GI50 [44]: 11.6 µM
TGI [44]: 54 µM
GI50 [45]: 14.2 µM
TGI [45]: 67 µM
GI50 [46]: 4.32 µM
TGI [46]: > 100 µM
GI50 [47]: 5.9 µM
TGI [47]: 65.3 µM
GI50 [48]: 4.34 µM
TGI [48]: 28.9 µM
GI50 [49]: 6.25 µM
TGI [49]: 36.5 µM
GI50 [50]: 8.35 µM
TGI [50]: > 100 µM
GI50 [51]: 10.7 µM
TGI [51]: 35.5 µM
GI50 [52]: 21.4 µM
TGI [52]: 70 µM
GI50 [53]: 10.6 µM
TGI [53]: 53.3 µM
GI50 [54]: 16.2 µM
TGI [54]: > 100 µM
GI50 [55]: 9.57 µM
TGI [55]: > 100 µM
GI50 [56]: 15.8 µM
TGI [56]: 59.3 µM
GI50 [57]: 10.2 µM
TGI [57]: > 100 µM
GI50 [58]: 13.8 µM
TGI [58]: 77.3 µM
GI50 [59]: 27.4 µM
TGI [59]: > 100 µM

Source: PubChem BioAssay (NCI)
